Results reported in PMC7000700, “RyR1-targeted drug discovery pipeline integrating FRET-based high-throughput screening and human myofiber dynamic Ca^2+ assays” (Scientific Reports, 2020).

Experiments:
[1] = target: ryanodine receptor, skeletal muscle isoform (RyR1), in porcine skeletal heavy SR membranes (pig (endogenous in porcine longissimus dorsi muscle)) (UniProt P16960); experiment: FRET or BRET; same FLT-FRET read-out with temsirolimus (dose response); skeletal and cardiac SR membranes, 30 nM Ca2+, 5 mM GSSG or GSH
[2] = target: ryanodine receptor, cardiac isoform (RyR2), in porcine cardiac SR membranes (pig (endogenous in porcine cardiac left ventricle)); experiment: as above
[3] = target: ryanodine receptor, skeletal muscle isoform (RyR1), in porcine skeletal heavy SR membranes (pig (endogenous in porcine longissimus dorsi muscle)) (UniProt P16960); experiment: co-sedimentation; fluorescent FKBP12.6 co-sedimented with pig skeletal and cardiac SR membranes, same conditions as the primary screen; with 10 μM temsirolimus or tacrolimus
[4] = target: ryanodine receptor, cardiac isoform (RyR2), in porcine cardiac SR membranes (pig (endogenous in porcine cardiac left ventricle)); experiment: as above
RyR2 [5] = target: T1, RyR2 (Sus scrofa, UniProt A0A5G2R1W3); experiment: F-FKBP binding to RyR2 by co-sedimentation with cardiac SR membranes; parameters: using co-sedimentation with pig skeletal and cardiac SR membranes; from tissue; host or cells: pig cardiac muscle (crude SR membranes); species or system pig; details: RyR2, 10 μM Hit, 30 nM Ca2+, 5 mM GSSG or GSH
Procedure: (§1) The Hit-induced effect on FRET between D-FKBP and A-CaM most likely results from one or the combination of factors, including a shift in CaM and/or FKBP12.6 binding, and/or structure of the RyR complex that shifts the D-A distance. Under the same assay conditions as in the primary screen, we assessed the effect of 10 μM Hit on fluorescent FKBP12.6 (F-FKBP) binding to RyRs, using co-sedimentation with pig skeletal and cardiac SR membranes.
(§2) Supplementary Fig. 3 Effect of HTS Hits on F-FKBP binding to a) RyR1 in skeletal HSR membranes, and b) RyR2
(§3) in cardiac CSR membranes at 30 nM Ca2+ in the presence of 5 mM GSSG or GSH. Results are represented as individual
(§4) data points and means ± SEM, n = 4-5. *P < 0.05 by 2-sided Student’s unpaired t-test. […]

RyR1 [6] = target: T2, RyR1 (Sus scrofa, UniProt P16960); experiment: FLT-FRET between D-FKBP and A-CaM bound to RyR1 in skeletal SR membranes (HTS and dose-response); format: binding, porcine; parameters: RyR1 in skeletal SR membranes, and RyR2 in cardiac SR membranes; from tissue; host or cells: porcine longissimus dorsi muscle (heavy SR vesicles); details: 30 nM Ca2+
T2 sequence (P16960 whole entry): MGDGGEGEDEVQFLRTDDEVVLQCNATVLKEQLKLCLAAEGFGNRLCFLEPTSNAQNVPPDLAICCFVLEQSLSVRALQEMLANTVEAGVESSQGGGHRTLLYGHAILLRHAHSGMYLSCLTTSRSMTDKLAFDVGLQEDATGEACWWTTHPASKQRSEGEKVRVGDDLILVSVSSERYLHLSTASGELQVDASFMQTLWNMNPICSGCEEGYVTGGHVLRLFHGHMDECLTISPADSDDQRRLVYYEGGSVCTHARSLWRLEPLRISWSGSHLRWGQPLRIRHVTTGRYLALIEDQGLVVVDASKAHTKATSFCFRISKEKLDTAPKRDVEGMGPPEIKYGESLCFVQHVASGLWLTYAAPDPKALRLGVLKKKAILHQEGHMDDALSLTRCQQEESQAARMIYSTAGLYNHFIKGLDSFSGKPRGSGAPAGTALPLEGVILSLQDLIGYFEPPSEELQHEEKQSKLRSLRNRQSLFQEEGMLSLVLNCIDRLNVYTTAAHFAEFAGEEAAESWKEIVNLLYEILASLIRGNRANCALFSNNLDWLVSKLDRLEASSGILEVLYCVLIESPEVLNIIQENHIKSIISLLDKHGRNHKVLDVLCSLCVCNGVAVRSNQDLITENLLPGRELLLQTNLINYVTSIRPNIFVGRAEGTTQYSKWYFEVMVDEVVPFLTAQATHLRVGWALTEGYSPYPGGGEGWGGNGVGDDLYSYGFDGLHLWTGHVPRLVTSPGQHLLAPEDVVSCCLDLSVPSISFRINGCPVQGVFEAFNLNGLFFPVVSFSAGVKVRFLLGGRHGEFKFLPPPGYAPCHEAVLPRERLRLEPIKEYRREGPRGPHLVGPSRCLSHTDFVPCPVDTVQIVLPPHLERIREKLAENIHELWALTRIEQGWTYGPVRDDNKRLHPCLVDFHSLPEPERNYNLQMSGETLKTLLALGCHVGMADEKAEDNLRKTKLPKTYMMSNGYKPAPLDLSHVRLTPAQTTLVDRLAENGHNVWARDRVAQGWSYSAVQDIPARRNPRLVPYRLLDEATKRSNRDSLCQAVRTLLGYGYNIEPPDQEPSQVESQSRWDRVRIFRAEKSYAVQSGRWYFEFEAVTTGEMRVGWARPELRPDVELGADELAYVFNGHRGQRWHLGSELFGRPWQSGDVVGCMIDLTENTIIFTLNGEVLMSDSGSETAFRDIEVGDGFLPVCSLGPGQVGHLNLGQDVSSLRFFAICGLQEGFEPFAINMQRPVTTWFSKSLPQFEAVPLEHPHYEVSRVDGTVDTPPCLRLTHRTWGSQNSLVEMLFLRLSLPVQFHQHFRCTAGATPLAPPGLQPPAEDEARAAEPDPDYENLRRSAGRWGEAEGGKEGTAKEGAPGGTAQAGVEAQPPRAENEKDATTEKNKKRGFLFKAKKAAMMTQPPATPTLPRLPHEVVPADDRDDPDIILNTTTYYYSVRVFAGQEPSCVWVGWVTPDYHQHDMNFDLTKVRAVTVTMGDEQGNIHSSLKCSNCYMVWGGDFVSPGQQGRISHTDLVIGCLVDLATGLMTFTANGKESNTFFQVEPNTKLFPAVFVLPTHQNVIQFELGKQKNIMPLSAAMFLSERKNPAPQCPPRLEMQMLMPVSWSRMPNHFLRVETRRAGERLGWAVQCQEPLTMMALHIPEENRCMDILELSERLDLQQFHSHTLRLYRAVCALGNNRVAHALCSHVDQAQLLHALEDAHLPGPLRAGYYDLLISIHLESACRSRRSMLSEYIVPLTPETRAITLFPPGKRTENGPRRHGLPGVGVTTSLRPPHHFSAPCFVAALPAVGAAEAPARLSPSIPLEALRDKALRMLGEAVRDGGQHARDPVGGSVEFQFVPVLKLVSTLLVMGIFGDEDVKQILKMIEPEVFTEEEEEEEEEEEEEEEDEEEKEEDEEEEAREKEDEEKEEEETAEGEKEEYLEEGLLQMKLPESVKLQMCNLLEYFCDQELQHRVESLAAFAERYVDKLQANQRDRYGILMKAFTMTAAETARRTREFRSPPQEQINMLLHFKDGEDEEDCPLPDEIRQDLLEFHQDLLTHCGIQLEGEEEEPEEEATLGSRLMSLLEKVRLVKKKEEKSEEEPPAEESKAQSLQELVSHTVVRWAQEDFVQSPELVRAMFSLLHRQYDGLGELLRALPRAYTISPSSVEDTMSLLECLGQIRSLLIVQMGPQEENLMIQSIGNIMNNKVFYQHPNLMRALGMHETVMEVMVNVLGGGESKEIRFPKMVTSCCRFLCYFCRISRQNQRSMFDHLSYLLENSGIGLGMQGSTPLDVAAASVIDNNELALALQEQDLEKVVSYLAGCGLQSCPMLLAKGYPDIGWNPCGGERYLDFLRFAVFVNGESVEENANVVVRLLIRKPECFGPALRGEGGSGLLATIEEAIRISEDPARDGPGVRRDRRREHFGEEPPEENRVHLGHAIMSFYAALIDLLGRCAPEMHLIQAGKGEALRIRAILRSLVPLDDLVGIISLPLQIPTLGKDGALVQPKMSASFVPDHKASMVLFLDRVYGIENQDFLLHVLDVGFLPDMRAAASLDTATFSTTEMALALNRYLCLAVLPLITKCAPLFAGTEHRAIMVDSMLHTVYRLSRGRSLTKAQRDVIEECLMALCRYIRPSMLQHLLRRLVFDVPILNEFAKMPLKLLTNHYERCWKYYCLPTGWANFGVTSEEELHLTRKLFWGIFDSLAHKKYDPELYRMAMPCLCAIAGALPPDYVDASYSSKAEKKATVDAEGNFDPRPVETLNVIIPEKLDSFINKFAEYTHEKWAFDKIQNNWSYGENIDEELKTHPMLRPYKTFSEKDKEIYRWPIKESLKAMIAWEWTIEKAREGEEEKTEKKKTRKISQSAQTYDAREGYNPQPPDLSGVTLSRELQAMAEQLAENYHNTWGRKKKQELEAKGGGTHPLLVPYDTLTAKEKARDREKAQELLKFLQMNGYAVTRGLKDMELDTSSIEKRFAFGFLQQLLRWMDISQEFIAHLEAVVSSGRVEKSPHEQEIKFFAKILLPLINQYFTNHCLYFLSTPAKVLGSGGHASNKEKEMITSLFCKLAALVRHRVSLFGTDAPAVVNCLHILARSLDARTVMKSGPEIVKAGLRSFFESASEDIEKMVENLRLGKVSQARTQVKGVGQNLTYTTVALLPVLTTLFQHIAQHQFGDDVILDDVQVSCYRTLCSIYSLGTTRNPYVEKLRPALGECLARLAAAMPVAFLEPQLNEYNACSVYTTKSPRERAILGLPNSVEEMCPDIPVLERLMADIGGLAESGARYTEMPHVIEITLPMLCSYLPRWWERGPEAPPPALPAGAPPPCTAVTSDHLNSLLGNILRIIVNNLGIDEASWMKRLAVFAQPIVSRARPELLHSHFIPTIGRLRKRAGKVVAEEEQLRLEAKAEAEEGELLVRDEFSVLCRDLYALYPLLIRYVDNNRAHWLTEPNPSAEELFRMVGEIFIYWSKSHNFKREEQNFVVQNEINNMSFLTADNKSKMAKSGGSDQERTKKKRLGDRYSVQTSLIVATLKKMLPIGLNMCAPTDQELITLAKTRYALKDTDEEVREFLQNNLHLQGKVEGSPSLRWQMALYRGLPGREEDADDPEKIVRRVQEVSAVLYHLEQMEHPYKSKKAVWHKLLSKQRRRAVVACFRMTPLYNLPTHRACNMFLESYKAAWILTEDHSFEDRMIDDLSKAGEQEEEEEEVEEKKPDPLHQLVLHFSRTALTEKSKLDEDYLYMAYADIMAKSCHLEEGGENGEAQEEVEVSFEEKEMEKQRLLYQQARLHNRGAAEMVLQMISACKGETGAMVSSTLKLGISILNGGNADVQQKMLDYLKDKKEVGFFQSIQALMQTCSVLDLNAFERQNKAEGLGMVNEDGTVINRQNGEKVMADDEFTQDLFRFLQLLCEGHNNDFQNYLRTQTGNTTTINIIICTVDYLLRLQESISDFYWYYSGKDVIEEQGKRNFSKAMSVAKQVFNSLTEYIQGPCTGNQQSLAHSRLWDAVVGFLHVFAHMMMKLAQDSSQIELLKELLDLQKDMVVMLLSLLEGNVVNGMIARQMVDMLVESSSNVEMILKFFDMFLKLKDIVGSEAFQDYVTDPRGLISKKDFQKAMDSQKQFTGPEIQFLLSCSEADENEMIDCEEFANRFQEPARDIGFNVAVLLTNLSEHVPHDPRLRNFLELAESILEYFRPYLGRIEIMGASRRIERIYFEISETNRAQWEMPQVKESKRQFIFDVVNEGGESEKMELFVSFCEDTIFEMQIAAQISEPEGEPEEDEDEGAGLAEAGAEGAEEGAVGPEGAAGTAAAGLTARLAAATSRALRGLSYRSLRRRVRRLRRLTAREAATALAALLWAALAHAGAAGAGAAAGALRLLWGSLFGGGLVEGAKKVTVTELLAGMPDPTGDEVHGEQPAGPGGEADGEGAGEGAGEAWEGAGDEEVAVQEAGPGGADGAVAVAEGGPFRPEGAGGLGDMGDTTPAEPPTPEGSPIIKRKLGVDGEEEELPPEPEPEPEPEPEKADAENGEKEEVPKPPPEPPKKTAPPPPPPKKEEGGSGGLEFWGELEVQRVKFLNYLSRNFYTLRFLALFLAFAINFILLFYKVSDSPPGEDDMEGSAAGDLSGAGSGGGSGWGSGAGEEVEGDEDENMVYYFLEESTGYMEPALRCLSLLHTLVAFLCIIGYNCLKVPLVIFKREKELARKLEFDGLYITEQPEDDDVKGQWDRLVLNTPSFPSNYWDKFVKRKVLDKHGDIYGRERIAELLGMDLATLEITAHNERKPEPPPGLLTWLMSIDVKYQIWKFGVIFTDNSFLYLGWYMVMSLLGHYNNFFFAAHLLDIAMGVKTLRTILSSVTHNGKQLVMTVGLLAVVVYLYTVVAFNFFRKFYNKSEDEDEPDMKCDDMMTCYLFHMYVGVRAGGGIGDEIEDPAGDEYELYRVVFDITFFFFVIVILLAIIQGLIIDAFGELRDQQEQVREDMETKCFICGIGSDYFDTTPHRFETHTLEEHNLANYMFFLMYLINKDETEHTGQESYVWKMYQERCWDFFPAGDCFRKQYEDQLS
Procedure: To confer compatibility with current HTS standards in industrial drug discovery facilities, we miniaturized our screening format from the previously established 384-well plates, requiring 50 μL sample per well[19], to 1536-well plates, requiring 5 μL sample per well. The complete 1280-compound library of pharmacologically active compounds (LOPAC) was applied as 5 nL/well in 40 columns of one 1536-well black-wall/black-bottom plate, with the remaining 8 columns loaded with 5 nL/well of DMSO, as no-drug controls. For each run of the screen, three plates were loaded with either (1) unlabeled HSR, or (2) HSR pre-incubated with donor-FKBP (D-FKBP; donor-only sample), or (3) donor-only sample that was additionally incubated with 0.3 μM acceptor-CaM (A-CaM) for 60 min prior to loading on the plate (donor-acceptor sample). This sub-saturating concentration of A-CaM was used to provide a readout that is sensitive to library compounds that may increase or decrease CaM binding affinity to RyR. To promote a homogenous population of RyR1 resembling that associated with myopathies, final assay conditions also included 30 nM Ca^2+ to represent resting (muscle relaxing) Ca^2+, and 5 mM oxidized glutathione (GSSG), which exaggerates the conditions associated with oxidative stress.
We acquired both FLT waveforms and fluorescence spectra, as previously described[19],[33],[34]. As previously observed, Hit effects were greatest following a 2-hour incubation with the library compounds (Supplementary Fig. 1a). As a result, all FRET results shown in Figs. 1 and 2, and Supplementary Fig. 2 are reported from the 2-hour incubation.
(§5) Necessary counter-screens to our pathological RyR1 conditions include evaluating compound effects in healthy conditions and on the cardiac isoform, RyR2. Using the same FRET assay as in HTS, we tested the dose response of key Hits from this screen and the previously HTS-identified RyR1 inhibitor, chloroxine, on healthy (5 mM GSH) and pathological (5 mM GSSG) conditions for both RyR1 in skeletal SR membranes, and RyR2 in cardiac SR membranes.
(§6) Skeletal HSR and cardiac CSR (0.4 mg/ml) membranes were independently pre-incubated with 60 nM D-FKBP, for 90 min, at 37 °C, in a solution containing 150 mM KCl, 5 mM GSH, 0.1 mg/mL BSA, 1 µg/mL Aprotinin/Leupeptin, 1 mM DTT and 20 mM PIPES (pH 7.0). To remove unbound D-FKBP, the SR membranes were spun down at 110,000 × g for 20 min, and then resuspended to 1 mg/mL (skeletal HSR) and 2 mg/mL (cardiac CSR) in binding buffer consisting of 150 mM KCl, 5 mM GSSG, 0.1 mg/mL BSA, 1μg/mL Aprotinin/Leupeptin and 20 mM PIPES, pH 7.0. These samples were then incubated with indicated [A-CaM] for 30 min at 22 °C in binding buffer containing 0.065 mM CaCl2 to give 30 nM free Ca^2+ in the presence of 1 mM EGTA (calculated by MaxChelator). This labeled SR sample was applied to the assay plates in 5 μL aliquots using a Multidrop™ Combi reagent dispenser (Thermo Scientific) with a standard-tube. An additional set of the assay plates were loaded with skeletal HSR or cardiac CSR labeled with only D-FKBP (no added A-CaM).
(§7) FLT measurements were conducted in a top-read FLT-PR designed and built by Fluorescence Innovations, Inc[33]. AF488 donor fluorescence was excited with a 473-nm microchip laser from Concepts Research Corporation (Belgium, WI), and emission was acquired with 490-nm long-pass and 517/20-nm band-pass filters (Semrock, Rochester, NY).
FLT waveforms for each well were fit based on a one-exponential decay function using least-squares minimization global-analysis software (Fluorescence Innovations, Inc.), as previously described[19],[33]. FRET efficiency (E) was determined as the fractional decrease of donor FLT (τD), due to the presence of acceptor fluorophore (τDA), using the following equation:1 E=1−τDA/τD, […]

RyR1 [7] = target: T2, RyR1; experiment: F-FKBP binding to RyR1 by co-sedimentation with skeletal SR membranes; parameters: using co-sedimentation with pig skeletal and cardiac SR membranes; from tissue; host or cells: pig skeletal muscle (heavy SR membranes); species or system pig; details: RyR1, 10 μM Hit, 30 nM Ca2+, 5 mM GSSG or GSH
Procedure: as §1, §2, §3, §4

RyR2 [8] = target: T1, RyR2; experiment: FLT-FRET between D-FKBP and A-CaM bound to RyR2 in cardiac SR membranes (dose-response); format: binding, porcine; parameters: RyR1 in skeletal SR membranes, and RyR2 in cardiac SR membranes; from tissue; host or cells: porcine cardiac left ventricle (crude SR vesicles); details: RyR2, dose-response, 30 nM Ca2+
Procedure: as §5, §6, §7
FLT waveforms for each well were fit based on a one-exponential decay function using least-squares minimization global-analysis software (Fluorescence Innovations, Inc.), as previously described[19],[33]. FRET efficiency (E) was determined as the fractional decrease of donor FLT (τD), due to the presence of acceptor fluorophore (τDA), using the following equation:1 E=1−τDA/τD,

FRET reduction by temsirolimus [1] | FRET reduction by temsirolimus [2] | percent decrease of binding with 10 μM temsirolimus or tacrolimus [3] | percent decrease of binding with 10 μM temsirolimus or tacrolimus [4] | Decrease of F-FKBP binding (RyR2 [5]) | Hit in primary FLT-FRET HTS of LOPAC (FRET altered by > 4 SD vs DMSO) (RyR1 [6]; 10 μM compound, 2-hour incubation, 5 mM GSSG, 0.3 μM A-CaM, 1536-well) | FRET reduction (RyR1 [6]; RyR1, dose-response) | Decrease of F-FKBP binding (RyR1 [7]) | FRET reduction (RyR2 [8]) | Compound
10% | 68 to 70% | 20% | 70% | – | – | – | – | – | FKBP12.6 single-cysteine mutant (C22A/T85C/C76I) labeled with AF488 (donor-FKBP) (natural protein)
– | – | – | – | 70% | identified | ~ 10% | 20% | 68–70% | CO[C@H]1C[C@@H]2CC[C@@H](C)[C@@](O)(O2)C(=O)C(=O)N2CCCC[C@H]2C(=O)O[C@H]([C@H](C)C[C@@H]2CC[C@@H](OC(=O)C(C)(CO)CO)[C@H](OC)C2)CC(=O)[C@H](C)/C=C(\C)[C@@H](O)[C@@H](OC)C(=O)[C@H](C)C[C@H](C)/C=C/C=C/C=C/1C [temsirolimus]
